Source: patent US20100234463A1, “Method for Identifying Modulators of Gamma Secretase or Notch” (priority 2005, published 2010)

Assays:
[1] = tested on: γ-secretase; settings: reported; cited from earlier work
[2] = tested on: Aβ40; assay: Quantification of Aβ40 in cell-conditioned media by ECL; type: cell-based, human; settings: 24 hours
Description: (§1) Human embryonic kidney (HEK) 293 cells stably over-expressing β-amyloid precursor protein (βAPP695) and c-myc-tagged NotchΔE (M1727V) have been previously described (Beher, D. et al., J. Biol Chem. 276: 45394-45402, (2001)). Cells were routinely maintained in Dulbecco's modified Eagle's medium (DMEM) supplemented with 10% (v/v) fetal calf serum (FCS, Invitrogen™, Carlsbad, Calif.), 1 μg/ml puromycin (Sigma-Aldrich, St. Louis, Mo.) to maintain βAPP expression and 100 μg/ml zeocin (Life Technologies, Inc., Rockville, Md.) to select for NotchΔE expression. Cells were passaged on a weekly basis using 1:10 split ratio.
(§2) On the day of the assay, media was removed and cells washed with phosphate-buffered saline (PBS, Sigma-Aldrich, St. Louis, Mo.), followed by incubation with 1.5 ml Accutase (PAA Laboratories GmbH, Pasching, Austria) at 37° C. for 10 minutes to detach cells. DMEM supplemented with 10% (v/v) FCS was added and the cell suspension centrifuged for 5 minutes at 1120 prm. […] A further 9 ml DMEM supplemented with 0.4% (v/v) FCS was added and cells counted.
(§3) Cells were plated in poly-d-lysine coated 96-well plates (Becton Dickinson, Fullerton, Calif.) at 10,000 cells/well in DMEM supplemented with 0.4% (v/v) FCS (Invitrogen™, Carlsbad, Calif.). […] Cell conditioned media was removed for quantification of Aβ peptides and the cell monolayer fixed by incubating with 3.7% (v/v) formaldehyde (Sigma-Aldrich, St. Louis, Mo.) in PBS at room temperature for fifteen minutes.
Aβ peptides secreted into the media were quantified using an electrochemiluminescence (ECL) assay in a 96-well plate format (Sector HTS™ analyzer, Meso Scale Discovery® a division of Meso Scale Diagnostics™, LLC (MSD™), Gaithersburg, Md.). […] Plates were washed with PBS (three times, five minutes each) and media replaced with 150 μl Read buffer S (Meso Scale Discovery®) prior to detecting Aβ40 and Aβ42 using the Sector HTS™ Analyzer. […]
Mean values for vehicle control and compound C treated cells were calculated. […] Percent control values were calculated using the following formula: […]

[3] = tested on: Notch; assay: NICD nuclear translocation high content screening assay (ArrayScan); type: cell-based, human
Description: as §1, §2, §3
Cells were washed with PBS (three times, five minutes each) and incubated with 0.1% Triton-X in PBS for 90 seconds at room temperature. […] After washing with PBS (three times, five minutes each), the plates were sealed and transferred to a Cellomics™ ArrayScan® 4.0 (Cellomics Inc, Pittsburgh, Pa.) for quantification of NICD translocation.
Automated image capture and quantification of NICD nuclear translocation was performed using a Cellomics™ ArrayScan® 4.0 and the Cytoplasm to Nucleus Translocation BioApplication software (Cellomics, Pittsburgh, Pa.). […]

[4] = tested on: Aβ42; settings: cited from earlier work
[5] = tested on: Aβ42; assay: Quantification of Aβ42 in cell-conditioned media by ECL; type: cell-based, human; settings: 24 hours
Description: as §1
On the day of the assay, media was removed and cells washed with phosphate-buffered saline (PBS, Sigma-Aldrich, St. Louis, Mo.), followed by incubation with 1.5 ml Accutase (PAA Laboratories GmbH, Pasching, Austria) at 37° C. for 10 minutes to detach cells. […] A further 9 ml DMEM supplemented with 0.4% (v/v) FCS was added and cells counted.
Cells were plated in poly-d-lysine coated 96-well plates (Becton Dickinson, Fullerton, Calif.) at 10,000 cells/well in DMEM supplemented with 0.4% (v/v) FCS (Invitrogen™, Carlsbad, Calif.). […] Cell conditioned media was removed for quantification of Aβ peptides and the cell monolayer fixed by incubating with 3.7% (v/v) formaldehyde (Sigma-Aldrich, St. Louis, Mo.) in PBS at room temperature for fifteen minutes. […]

Structure (SMILES) | potency for inhibition of Aβ40 versus Aβ42 peptides [1] | effect on Aβ40 levels ([2]; increasing concentrations) | inhibition of NICD nuclear translocation over time ([3]; 10 μM, up to twenty four hours) | reported effect on Aβ42 [4] | concentrations at which Aβ40 peptide generation was inhibited [2] | IC50 ([2]; HEK293 βAPP695 NotchΔE cells) | concentrations with no effect on NICD nuclear translocation ([3]; 24 hours) | IC50 ([3]; NICD nuclear translocation, 24 hours) | IC50 ([5]; HEK293 βAPP695 NotchΔE cells) | effect on Aβ42 peptide levels ([5]; increasing concentrations)
CC(C)C[C@H](NC(=O)[C@H](Cc1ccccc1)C[C@@H](O)[C@H](Cc1ccccc1)NC(=O)OC(C)(C)C)C(=O)N[C@@H](Cc1ccccc1)C(N)=O [C] | equivalent potency | declined | Time-dependant inhibition |  |  |  |  |  |  | 
C[C@@H](C(=O)O)c1ccc(-c2ccccc2)c(F)c1 [Compound F] |  |  |  | preferentially inhibit Aβ42 | ≥ 30 µM | > 1000 µM | up to 1000 μM | > 1000 µM | 9.24 µM | selectively reduced
